Among the data in patent publication US9309248B2, “Azaindolines” (Hoffmann-La Roche Inc., priority 2012, dated 2016) are IC50 values, retold here.

The target in assay [1] is T1, BIR3 domain of XIAP (Homo sapiens, UniProt P98170).
T1 construct: BIR3 domain, corresponding to amino acids 241-356 of XIAP
Description: TR-FRET assay for BIR3 (inhibition of binding of XIAP BIR3 domain to SMAC-derived Peptide A). As to conditions: 6x Histidine-tagged BIR3 domain (amino acids 241-356 of XIAP) 10 nM, Peptide A 20 nM. On the procedure: (§1) TR-FRET Assay for BIR2 and BIR3
(§2) The ability of a test compound to inhibit the binding of BIR2 and/or BIR3 domains of the XIAP protein to Peptide A (a SMAC-derived peptide described below) evidences that the test compound acts as a SMAC-mimetic resulting in reactivation of a cell's apoptotic pathway.
(§3) The peptides were labeled with the fluorescent tags FITC or TAMRA and Kd values were determined by fluorescence polarization assay. […] The peptide sequence was derivatized with biotin to provide […]-(ε-biotin)-OH 1:2 TFA as the substrate for the TR-FRET assay.
The sequence of the BIR3 domain used for the TR-FRET assay is […]
Ten nanomolar of 6× Histidine-tagged BIR2 domain, corresponding to amino acids 124-240 of XIAP, or BIR3 domain, corresponding to amino acids 241-356 of XIAP, was mixed with 20 nM of the peptide […]-(z-biotin)-OH 1:2 TFA, in the presence of 50 mM Tris-Cl, pH 7.5, 100 mM NaCl, 1 mM dithiothreitol (DTT) and 0.1 mg/mL bovine serum albumin (BSA). Following a […] incubation at 37° C., Europium-Streptavidin and Allophycocyanin conjugated anti-Histidine antibody were added to a final concentration of 1.5 nM and 15 nM, respectively. Time-resolved fluorescence resonance energy transfer (TR-FRET) signals were measured 1 hour later at room temperature. Test compound potency was assessed at 10 serially diluted concentrations. Percentage of inhibition at each concentration was determined to generate an IC50 value for each test compound.
On the technique in general: TR-FRET usually uses a lanthanide donor and a delayed reading to cut background.

For assay [2], the target named is T2, BIR2 domain of XIAP (Homo sapiens, UniProt P98170, C202A/C213G).
T2 construct: 6× Histidine-tagged BIR2 domain, corresponding to amino acids 124-240 of XIAP
T2 sequence (P98170 with tags, fused parts or gaps C202A/C213G): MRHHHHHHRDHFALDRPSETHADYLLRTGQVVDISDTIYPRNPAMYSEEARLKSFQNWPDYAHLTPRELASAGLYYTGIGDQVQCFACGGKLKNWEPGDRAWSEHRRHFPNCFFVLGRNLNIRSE
Nature of the assay: TR-FRET assay for BIR2 (inhibition of binding of XIAP BIR2 domain to SMAC-derived Peptide A). The following applies: 6x Histidine-tagged BIR2 domain (amino acids 124-240 of XIAP) 10 nM, Peptide A 20 nM. On the procedure: as §1, §2, §3
The XIAP protein sequence was obtained from the SWISS-PROT protein sequence database and the BIR2 and BIR3 domains were derived from that. The sequence of the BIR2 domain used for the TR-FRET assay is […].
Time-resolved fluorescence resonance energy transfer (TR-FRET) signals were measured 1 hour later at room temperature. Test compound potency was assessed at 10 serially diluted concentrations. Percentage of inhibition at each concentration was determined to generate an IC50 value for each test compound.

Some results are limits rather than exact numbers.

T1 sequence (P98170 with tags, fused parts or gaps): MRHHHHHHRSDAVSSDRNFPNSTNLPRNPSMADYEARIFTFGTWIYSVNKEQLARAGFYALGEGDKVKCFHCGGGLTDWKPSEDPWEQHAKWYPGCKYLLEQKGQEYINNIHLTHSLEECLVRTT

A word on the IC50: it is the concentration needed to halve the response being measured. Read a low IC50 as greater potency. `CN[C@@H](C)C(=O)N[C@H](C(=O)N1c2ncccc2C[C@H]1C(=O)Nc1cccc(F)c1)C(C)C` [Example 39, (S)-1-[(S)-3-Methyl-2-((S)-2-methylamino-propionylamino)-butyryl]-2,3-dihydro-1H-pyrrolo[2,3-b]pyridine-2-carboxylic acid (3-fluoro-phenyl)-amide]: the IC50 is over 54800 nM in assay [1] and 226 nM in assay [2].

As to `CCc1ccccc1NC(=O)[C@@H]1Cc2cccnc2N1C(=O)[C@@H](NC(=O)[C@H](C)NC)C(C)C` [Example 40, (S)-1-[(S)-3-Methyl-2-((S)-2-methylamino-propionylamino)-butyryl]-2,3-dihydro-1H-pyrrolo[2,3-b]pyridine-2-carboxylic acid (2-ethyl-phenyl)-amide], the IC50 in assay [1] is over 54800 nM; in assay [2] it was 104 nM.

For the compound `CN[C@@H](C)C(=O)N[C@H](C(=O)N1c2ncccc2C[C@H]1C(=O)Nc1ccc(C2CCNCC2)cc1)C(C)C` [Example 41, (S)-1-[(S)-3-Methyl-2-((S)-2-methylamino-propionylamino)-butyryl]-2,3-dihydro-1H-pyrrolo[2,3-b]pyridine-2-carboxylic acid (4-piperidin-4-yl-phenyl)-amide], the values for the IC50 in assay [1] and in assay [2] were over 54800 nM and 701 nM, respectively.

For `CN[C@@H](C)C(=O)N[C@H](C(=O)N1c2ncccc2C[C@H]1C(=O)Nc1ccc(C(=O)c2ccccc2)cc1)C(C)C` [Example 42, (S)-1-[(S)-3-Methyl-2-((S)-2-methylamino-propionylamino)-butyryl]-2,3-dihydro-1H-pyrrolo[2,3-b]pyridine-2-carboxylic acid (4-benzoyl-phenyl)-amide], the results for the IC50 in assay [1] and in assay [2] were over 54800 nM and 847 nM, respectively.

Regarding `CN[C@@H](C)C(=O)N[C@H](C(=O)N1c2ncccc2C[C@H]1C(=O)Nc1cccc(C)c1C)C(C)C` [Example 43, (S)-1-[(S)-3-Methyl-2-((S)-2-methylamino-propionylamino)-butyryl]-2,3-dihydro-1H-pyrrolo[2,3-b]pyridine-2-carboxylic acid (2,3-dimethyl-phenyl)-amide], the IC50 was over 54800 nM in assay [1] and 71.1 nM in assay [2].

In the case of `CN[C@@H](C)C(=O)N[C@H](C(=O)N1c2ncccc2C[C@H]1C(=O)Nc1cc(C)ccc1F)C(C)C` [Example 44, (S)-1-[(S)-3-Methyl-2-((S)-2-methylamino-propionylamino)-butyryl]-2,3-dihydro-1H-pyrrolo[2,3-b]pyridine-2-carboxylic acid (2-fluoro-5-methyl-phenyl)-amide], the results for the IC50 in assay [1] and in assay [2] were over 54800 nM and 3.8 nM, respectively.

With `CN[C@@H](C)C(=O)N[C@H](C(=O)N1c2ncccc2C[C@H]1C(=O)Nc1cc(C)cc(C)c1)C(C)C` [Example 45, (S)-1-[(S)-3-Methyl-2-((S)-2-methylamino-propionylamino)-butyryl]-2,3-dihydro-1H-pyrrolo[2,3-b]pyridine-2-carboxylic acid (3,5-dimethyl-phenyl)-amide], the IC50 in assay [1] was over 54800 nM; in assay [2] it was 304 nM.

As for `CN[C@@H](C)C(=O)N[C@H](C(=O)N1c2ncccc2C[C@H]1C(=O)Nc1ccc(C)cc1F)C(C)C` [Example 46, (S)-1-[(S)-3-Methyl-2-((S)-2-methylamino-propionylamino)-butyryl]-2,3-dihydro-1H-pyrrolo[2,3-b]pyridine-2-carboxylic acid (2-fluoro-4-methyl-phenyl)-amide], the IC50 in assay [1] is over 54800 nM; in assay [2], 4.04 nM.

With `CN[C@@H](C)C(=O)N[C@H](C(=O)N1c2ncccc2C[C@H]1C(=O)Nc1ccc(OC)cc1F)C(C)C` [Example 47, (S)-1-[(S)-3-Methyl-2-((S)-2-methylamino-propionylamino)-butyryl]-2,3-dihydro-1H-pyrrolo[2,3-b]pyridine-2-carboxylic acid (2-fluoro-4-methoxy-phenyl)-amide], the IC50 is over 54800 nM in assay [1] and 4.29 nM in assay [2].

For `CN[C@@H](C)C(=O)N[C@H](C(=O)N1c2ncccc2C[C@H]1C(=O)Nc1ccccc1C#N)C(C)C` [Example 48, (S)-1-[(S)-3-Methyl-2-((S)-2-methylamino-propionylamino)-butyryl]-2,3-dihydro-1H-pyrrolo[2,3-b]pyridine-2-carboxylic acid (2-cyano-phenyl)-amide], the IC50 is over 54800 nM in assay [1] and 54.9 nM in assay [2].

For the compound `CN[C@@H](C)C(=O)N[C@H](C(=O)N1c2ncccc2C[C@H]1C(=O)Nc1ccc(C(=O)OC)cc1F)C(C)C` [Example 49, 3-Fluoro-4-({(S)-1-[(S)-3-methyl-2-((S)-2-methylamino-propionylamino)-butyryl]-2,3-dihydro-1H-pyrrolo[2,3-b]pyridine-2-carbonyl}-amino)-benzoic acid methyl ester], the IC50 in assay [1] is over 54800 nM; in assay [2], 102 nM.

For `CN[C@@H](C)C(=O)N[C@H](C(=O)N1c2ncccc2C[C@H]1C(=O)Nc1ccc(S(C)(=O)=O)cc1F)C(C)C` [Example 50, (S)-1-[(S)-3-Methyl-2-((S)-2-methylamino-propionylamino)-butyryl]-2,3-dihydro-1H-pyrrolo[2,3-b]pyridine-2-carboxylic acid (2-fluoro-4-methanesulfonyl-phenyl)-amide], the IC50 is over 54800 nM in assay [1] and 89.3 nM in assay [2].

With `CN[C@@H](C)C(=O)N[C@H](C(=O)N1c2ncccc2C[C@H]1C(=O)NCCS(C)(=O)=O)C(C)C` [Example 51, (S)-1-[(S)-3-Methyl-2-((S)-2-methylamino-propionylamino)-butyryl]-2,3-dihydro-1H-pyrrolo[2,3-b]pyridine-2-carboxylic acid (2-methanesulfonyl-ethyl)-amide], the results for the IC50 in assay [1] and in assay [2] were over 54800 nM and 828 nM, respectively.

For `CN[C@@H](C)C(=O)N[C@H](C(=O)N1c2ncccc2C[C@H]1C(=O)NC(C)c1ccccc1)C(C)C` (stereo partly drawn) [Example 52, (S)-1-[(S)-3-Methyl-2-((S)-2-methylamino-propionylamino)-butyryl]-2,3-dihydro-1H-pyrrolo[2,3-b]pyridine-2-carboxylic acid (1-phenyl-ethyl)-amide], the IC50 in assay [1] came out at 21500 nM; in assay [2], 978 nM.

Regarding `CN[C@@H](C)C(=O)N[C@H](C(=O)N1c2ncccc2C[C@H]1C(=O)NCCS(=O)(=O)N(C)C)C(C)C` [Example 53, (S)-1-[(S)-3-Methyl-2-((S)-2-methylamino-propionylamino)-butyryl]-2,3-dihydro-1H-pyrrolo[2,3-b]pyridine-2-carboxylic acid (2-dimethylsulfamoyl-ethyl)-amide], the IC50 in assay [1] was over 54800 nM; in assay [2], 740 nM.

Take `CN[C@@H](C)C(=O)N[C@H](C(=O)N1c2ncccc2C[C@H]1C(=O)NC(C)(C)c1ccccc1)C(C)C` [Example 54, (S)-1-[(S)-3-Methyl-2-((S)-2-methylamino-propionylamino)-butyryl]-2,3-dihydro-1H-pyrrolo[2,3-b]pyridine-2-carboxylic acid (1-methyl-1-phenyl-ethyl)-amide]: the results for the IC50 in assay [1] and in assay [2] were 47400 nM and 4730 nM, respectively.

On to `CN[C@@H](C)C(=O)N[C@H](C(=O)N1c2ncccc2C[C@H]1C(=O)NCc1cc(F)ccc1C)C(C)C` [Example 55, (S)-1-[(S)-3-Methyl-2-((S)-2-methylamino-propionylamino)-butyryl]-2,3-dihydro-1H-pyrrolo[2,3-b]pyridine-2-carboxylic acid 5-fluoro-2-methyl-benzylamide], for which the figures for the IC50 in assay [1] and in assay [2] were 35300 nM and 139 nM, respectively.
